# Source: PubChem BioAssay (NCI)
#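 96-well plates; 48 h exposure; 5 concentrations. Endpoints by linear interpolation between flanking doses. Not reached: highest tested concentration assigned. TGI: total growth inhibition.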
# Key:
# Test in all cases: NCI anticancer screen, dose series, 48 h
# RPMI-8226 leukemia = system: RPMI-8226 leukemia
# M14 melanoma = system: M14 melanoma
# CCRF-CEM leukemia = system: CCRF-CEM leukemia
# SNB-19 CNS = system: SNB-19 CNS
# EKVX NSCLC = system: EKVX NSCLC
# SNB-75 CNS = system: SNB-75 CNS
# SK-MEL-28 melanoma = system: SK-MEL-28 melanoma
# OVCAR-4 ovarian = system: OVCAR-4 ovarian
# NCI-H226 lung = system: NCI-H226 lung
# 786-0 renal = system: 786-0 renal
# T-47D breast = system: T-47D breast
# DU-145 prostate = system: DU-145 prostate
# UACC-62 melanoma = system: UACC-62 melanoma
# HS 578T breast = system: HS 578T breast
Structure (SMILES),TGI (RPMI-8226 leukemia),TGI (M14 melanoma),TGI (CCRF-CEM leukemia),TGI (SNB-19 CNS),TGI (EKVX NSCLC),TGI (SNB-75 CNS),TGI (SK-MEL-28 melanoma),TGI (OVCAR-4 ovarian),TGI (NCI-H226 lung),TGI (786-0 renal),TGI (T-47D breast),TGI (DU-145 prostate),TGI (UACC-62 melanoma),TGI (HS 578T breast)
CN1OC2OC(=O)OC2[C@H]1[C@H]1O[C@H](c2ccccc2)OC1(C)c1cc(OC(=O)c2ccccc2)ccc1OC(=O)c1ccccc1 (stereo not given in full),> 50 µM,> 50 µM,> 50 µM,> 50 µM,> 50 µM,> 50 µM,> 50 µM,> 50 µM,> 50 µM,> 50 µM,,,,
NC(CCCCNC(=O)C(Cc1ccccc1)NC(=O)OCc1ccccc1)C(=O)NC(CCCCNC(=O)C(Cc1ccccc1)NC(=O)OCc1ccccc1)C(=O)NC(CCCCNC(=O)C(Cc1ccccc1)NC(=O)OCc1ccccc1)C(=O)NC(CCCCNC(=O)C(Cc1ccccc1)NC(=O)OCc1ccccc1)C(=O)NC(CCCCNC(=O)C(Cc1ccccc1)NC(=O)OCc1ccccc1)C(=O)NC(CCCCNC(=O)C(Cc1ccccc1)NC(=O)OCc1ccccc1)C(=O)O (stereo not given),> 100 µM,> 100 µM,> 100 µM,> 100 µM,,> 100 µM,> 100 µM,> 100 µM,> 100 µM,> 100 µM,> 100 µM,> 100 µM,> 100 µM,
CSc1ccc2c(cc1=O)[C@@H](NC(=O)c1ccc(F)cc1)CCc1cc(O)c(O)c(O)c1-2,> 100 µM,> 100 µM,> 100 µM,> 100 µM,> 100 µM,> 100 µM,> 100 µM,> 100 µM,> 100 µM,> 100 µM,,,> 100 µM,
N/N=C(\C(=O)Nc1ccc([N+](=O)[O-])cc1)C(C1=Nc2cc([N+](=O)[O-])ccc2NC1)[N+](=O)[O-] (stereo not given),> 100 µM,> 100 µM,> 100 µM,> 100 µM,> 100 µM,> 100 µM,> 100 µM,> 100 µM,> 100 µM,> 100 µM,> 100 µM,,> 100 µM,> 100 µM
COc1ccc(C#CCC(OC2OC(CO)C(O)C(O)C2O)C(O)c2ccc(OC)c(OC)c2)cc1OC (stereo not given),> 100 µM,> 100 µM,> 100 µM,> 100 µM,> 100 µM,> 100 µM,> 100 µM,> 100 µM,> 100 µM,> 100 µM,,,> 100 µM,
CCN(CC)c1nc(N(C)C)c2cc(OC)ccc2n1,61.2 µM,> 100 µM,,> 100 µM,> 100 µM,,> 100 µM,> 100 µM,60.1 µM,86.2 µM,,> 100 µM,> 100 µM,> 100 µM
COc1ccc([C@@H]2CC(=O)NCCCCNCCCN2)cc1,> 100 µM,> 100 µM,> 100 µM,> 100 µM,> 100 µM,> 100 µM,> 100 µM,> 100 µM,> 100 µM,> 100 µM,,,> 100 µM,
CC1=NN(C(=O)Cc2ccccc2)C(=O)/C1=C\c1ccco1,> 100 µM,> 100 µM,> 100 µM,> 100 µM,> 100 µM,> 100 µM,> 100 µM,> 100 µM,> 100 µM,> 100 µM,,,,
CC[C@@]1(O)C(=O)OCc2c1cc1n(c2=O)Cc2c-1nc1ccccc1c2/C=N\NC(=O)C(C)N (stereo not given in full),,5.05 µM,,58.7 µM,> 100 µM,4.33 µM,> 100 µM,> 100 µM,2.43 µM,2 µM,,0.398 µM,0.305 µM,> 100 µM
